The source of these data is US6355634B1, “Aromatic compounds” (Bayer Aktiengesellschaft, priority 1990, dated 2002).

One data set relates to Venturia inaequalis. Put plainly: Venturia inaequalis (curative action) on apple seedlings. Format: in vivo. Conditions: 50 ppm spray, apple cv. Golden Delicious, evaluated 9-10 days after treatment, read-out: action (leaf area covered in Venturia inaequalis as a percentage compared with the infected control). On the procedure:
Venturia inaequalis (Curative Action)
Two apple seedlings cv. “Golden Delicious” are sprayed with a conidia suspension of Venturia inaequalis and subsequently incubated at 18° C. and under dew-point conditions. After 24 hours, the plants are sprayed thoroughly from all sides with a spray mixture prepared with a wettable powder of the active substance (with 50 ppm of active ingredient). The treated apple seedlings are subsequently cultured further in the greenhouse. 9-10 days after the treatment, the test is evaluated by determining the leaf area covered in Venturia inaequalis as a percentage compared with the infected control.

Another data set deals with Alternaria brassicae. Put plainly: Alternaria brassicae (protective action) on cabbage seedlings. In kind it is in vivo. As to conditions: 50 ppm spray, cabbage cv. Vorbote, evaluated 2-5 days after infection, read-out: action (leaf area infected with Alternaria brassicae as a percentage compared with the infected, untreated control). On the procedure:
Alternaria brassicae (Protective Action)
4 cabbage seedlings, cv. “Vorbote”, in the 6-leaf stage, distributed to 2 pots, are sprayed thoroughly with a spray mixture prepared with a wettable powder of the active substance (with 50 ppm of active ingredient) and subsequently cultured further in a controlled-environment cabinet at 19° C. and with 16 hours illumination per day. Two days after the treatment, the plants are infected by spraying with an aqueous conidia suspension (approx. 30,000 conidia/ml). The cabbage plants are then incubated at 24-26° C., under dew-point conditions and with a photoperiod of 16 hours. The test is evaluated 2-5 days after the infection by determining the leaf area infected with Alternaria brassicae as a percentage compared with the infected, untreated control.

The next data set has as its system Cercospora arachidicola. Put plainly: Action against Cercospora arachidicola on peanut plants (curative action). Format: in vivo. As to conditions: Mycosphaerella arachidis, 288 h, 160 ppm spray, peanut cv. Tamnut, evaluated 12 days after treatment, read-out: action (leaf area infected with Cercospora arachidicola as a percentage compared with the infected control). On the procedure:
Action Against Cercospora arachidicola on Peanut Plants (Curative Action)
Two peanut plants cv. “Tamnut” in the 4-leaf stage are sprayed with a conidia suspension of Cercospora arachidicola (approx. 200,000 conidia/ml) and subsequently incubated at 25-26° C. and under dew-point conditions. After two days, the plants are sprayed thoroughly from all sides with a spray mixture prepared with a wettable powder of the active substance (with 160 ppm of active ingredient). The treated plants are subsequently incubated in a controlled-environment cabinet under the following conditions: 25-27° C. and 80% atmospheric humidity during the day, 20° C. and dew-point conditions during the night; the photoperiod in each case is 16 hours. 12 days after the treatment, the test is evaluated by determining the leaf area infected with Cercospora arachidicola as a percentage compared with the infected control.

The test system of the next data set is Plasmopara viticola. Put plainly: Plasmopara viticola (protective action) on grapevine seedlings. In kind it is in vivo. As to conditions: 144 h, 160 ppm spray, grapevine cv. Riesling x Sylvaner, day 6 after infection, read-out: action (leaf area infected with Plasmopara viticola as a percentage compared with the infected, untreated control). On the procedure: Plasmopara viticola (Protective Action)
2 grapevine seedlings cv. Riesling×Sylvaner, each in the 4-5 leaf stage, are sprayed thoroughly from all sides with a spray mixture prepared with a wettable powder of the active substance (with 160 ppm of active ingredient) and subsequently cultured further in a controlled-environment cabinet at 17° C., 70-80% relative atmospheric humidity and with a photoperiod of 16 hours. After 6 days, the test plants are infected by spraying the undersides of the leaves with zoosporangia of Plasmopara viticola, suspended in distilled water (approx. 300,000 sporangia/ml). The grapevine plants are then incubated as follows: 1 day at 22° C. and under dew-point conditions in the dark and subsequently 4 days in the greenhouse. To induce fructification of Plasmopara viticola, the grapevines are transferred to a controlled-environment cabinet with dew-point conditions at 22° C. on day 5 after the infection.
The tests are carried out in each case on day 6 after the infection by determining the leaf area infected with Plasmopara viticola as a percentage compared with the infected, untreated control.

`CO/N=C(\C(=O)OC)c1ccccc1CON=C(C)c1cc2ccccc2o1` [Compound 32] returned a melting point of 110 to 112 °C. Also, in the data set with Venturia inaequalis, the pest or weed control at 50 ppm is > 75%. In addition, the pest or weed control at 50 ppm in the data set with Alternaria brassicae is > 75%. Moreover, in the data set with Cercospora arachidicola, the pest or weed control at 160 ppm was > 75%. For the same compound, in the data set with Plasmopara viticola, the pest or weed control at 160 ppm was > 75%.

As usually defined, the melting point is the temperature of the solid-liquid transition.
